In patent US10738056B2 (Aduro BioTech, Inc., priority 2017, dated 2020):

Tests used:
[1] = molecular target: Human cGAS amino acids 155-522 (Homo sapiens (Human), UniProt Q8N884); test: cGAS biochemical activity assay (ATP remaining, Kinase-Glo Max luminescence); conditions: human cGAS 155-522, ATP remaining (Kinase-Glo Max); read-out: cGAS IC50
[2] = tested on: cGAS/STING pathway in THP1 cells; test: THP1 cell-based cGAS/STING pathway activity assay (IRF-3-linked luciferase reporter); conditions: Homo sapiens, THP-1
In short: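 THP1 cells carrying an IRF-3-driven luciferase reporter were read across a range of compound concentrations, and IC50 values were derived from these concentration responses; the assay upper limit was 100 μM.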

Human cGAS amino acids 155-522, sequence (Q8N884 157-522): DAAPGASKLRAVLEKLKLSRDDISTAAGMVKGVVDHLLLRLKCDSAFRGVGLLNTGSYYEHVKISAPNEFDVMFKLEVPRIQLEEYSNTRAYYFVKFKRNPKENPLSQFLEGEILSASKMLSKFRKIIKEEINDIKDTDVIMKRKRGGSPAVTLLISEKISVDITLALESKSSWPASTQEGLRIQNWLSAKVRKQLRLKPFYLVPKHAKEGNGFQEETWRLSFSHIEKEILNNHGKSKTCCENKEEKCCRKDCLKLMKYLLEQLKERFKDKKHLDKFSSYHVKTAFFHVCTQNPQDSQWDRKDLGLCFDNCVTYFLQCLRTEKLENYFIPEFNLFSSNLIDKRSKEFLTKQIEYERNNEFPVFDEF

Cc1[nH]c2c(-c3ccccc3)c(C(F)(F)F)nn2c(=O)c1-c1nnc(C2=NCCCN2)o1 [Compound D1072, 5-methyl-3-phenyl-6-(5-(1,4,5,6-tetrahydropyrimidin-2-yl)-1,3,4-oxadiazol-2-yl)-2-(trifluoromethyl)pyrazolo[1,5-a]pyrimidin-7(4H)-one]
IC50 [1]: < 20 µM | IC50 [2]: > 100 µM

COc1cc(N)c(Cl)c2oc(-c3c(C)[nH]c4c(-c5ccccc5)c(C#N)nn4c3=O)nc12 [Compound C1202, 6-(6-amino-7-chloro-4-methoxybenzo[d]oxazol-2-yl)-5-methyl-7-oxo-3-phenyl-4,7-dihydropyrazolo[1,5-a]pyrimidine-2-carbonitrile]
IC50 [1]: < 20 µM | IC50 [2]: 20 to 100 µM

COc1nc(N)nc2oc(-c3c(C)[nH]c4c(-c5ccccc5)c(C(F)(F)F)nn4c3=O)nc12 [Compound C1174, 6-(5-amino-7-methoxyoxazolo[5,4-d]pyrimidin-2-yl)-5-methyl-3-phenyl-2-(trifluoromethyl)pyrazolo[1,5-a]pyrimidin-7(4H)-one]
IC50 [1]: < 20 µM | IC50 [2]: > 100 µM

CCOC(=O)c1coc(-c2c(C)[nH]c3c(-c4ccccc4)c(C(F)(F)F)nn3c2=O)n1 [Compound C1101, ethyl 2-(5-methyl-7-oxo-3-phenyl-2-(trifluoromethyl)-4,7-dihydropyrazolo[1,5-a]pyrimidin-6-yl)oxazole-4-carboxylate]
IC50 [1]: < 20 µM | IC50 [2]: 20 to 100 µM

COc1ccc(C(=O)O)c2oc(-c3c(C)[nH]c4c(-c5ccccc5)c(C(F)(F)F)nn4c3=O)nc12 [Compound C1130]
IC50 [1]: < 20 µM | IC50 [2]: 20 to 100 µM

Cc1[nH]c2c(-c3ccccc3)c(C(F)(F)F)nn2c(=O)c1-c1nc2c(o1)CCCC2=O [Compound C1033, 2-(5-methyl-7-oxo-3-phenyl-2-(trifluoromethyl)-4,7-dihydropyrazolo[1,5-a]pyrimidin-6-yl)-6,7-dihydrobenzo[d]oxazol-4(5H)-one]
IC50 [1]: < 20 µM | IC50 [2]: > 100 µM

CCCS(=O)(=O)NC(=O)c1c(C)[nH]c2c(-c3ccccc3)c(C(F)(F)F)nn2c1=O [Compound A1111, 5-methyl-7-oxo-3-phenyl-N-(propylsulfonyl)-2-(trifluoromethyl)-4,7-dihydropyrazolo[1,5-a]pyrimidine-6-carboxamide]
IC50 [1]: < 20 µM | IC50 [2]: > 100 µM

COc1cccc2oc(-c3c(CN(C)C)[nH]c4c(-c5ccccc5)c(C(F)(F)F)nn4c3=O)nc12 [Compound C1109, 5-((dimethylamino)methyl)-6-(4-methoxybenzo[d]oxazol-2-yl)-3-phenyl-2-(trifluoromethyl)pyrazolo[1,5-a]pyrimidin-7(4H)-one]
IC50 [1]: < 20 µM | IC50 [2]: > 100 µM

Cc1[nH]c2c(-c3ccccc3)c(C(F)(F)F)nn2c(=O)c1C(=O)Nc1cccc2c1OC(F)(F)O2 [Compound A1062, N-(2,2-difluorobenzo[d][1,3]dioxol-4-yl)-5-methyl-7-oxo-3-phenyl-2-(trifluoromethyl)-4,7-dihydropyrazolo[1,5-a]pyrimidine-6-carboxamide]
IC50 [1]: < 20 µM | IC50 [2]: < 20 µM

Cc1[nH]c2c(-c3ccccc3)c(C#N)nn2c(=O)c1-c1nc2ccc(N)cc2o1 [Compound C1193, 6-(6-aminobenzo[d]oxazol-2-yl)-5-methyl-7-oxo-3-phenyl-4,7-dihydropyrazolo[1,5-a]pyrimidine-2-carbonitrile]
IC50 [1]: < 20 µM | IC50 [2]: > 100 µM

CNc1cc(OC)c2nc(-c3c(C)[nH]c4c(-c5ccccc5)c(C(F)(F)F)nn4c3=O)oc2c1 [Compound C1161, 6-(4-methoxy-6-(methylamino)benzo[d]oxazol-2-yl)-5-methyl-3-phenyl-2-(trifluoromethyl)pyrazolo[1,5-a]pyrimidin-7(4H)-one]
IC50 [1]: < 20 µM | IC50 [2]: < 20 µM

CNc1cccc2oc(-c3c(C)[nH]c4c(-c5ccccc5)c(C#N)nn4c3=O)nc12 [Compound C1274, 5-methyl-6-(4-(methylamino)benzo[d]oxazol-2-yl)-7-oxo-3-phenyl-4,7-dihydropyrazolo[1,5-a]pyrimidine-2-carbonitrile]
IC50 [1]: < 20 µM | IC50 [2]: > 100 µM

COc1cc(NC(=O)c2c(C)[nH]c3c(-c4ccccc4)c(C(F)(F)F)nn3c2=O)cc(OC)c1 [Compound A1067, N-(3,5-dimethoxyphenyl)-5-methyl-7-oxo-3-phenyl-2-(trifluoromethyl)-4,7-dihydropyrazolo[1,5-a]pyrimidine-6-carboxamide]
IC50 [1]: < 20 µM | IC50 [2]: > 100 µM

COCc1nnc(-c2c(C)[nH]c3c(-c4ccccc4)c(C(F)(F)F)nn3c2=O)o1 [Compound D1019, 6-(5-(methoxymethyl)-1,3,4-oxadiazol-2-yl)-5-methyl-3-phenyl-2-(trifluoromethyl)pyrazolo[1,5-a]pyrimidin-7(4H)-one]
IC50 [1]: < 20 µM | IC50 [2]: > 100 µM

COc1ccccc1NC(=O)Cc1c(C)[nH]c2c(-c3ccccc3)c(C(F)(F)F)nn2c1=O [Compound B1010, N-(2-methoxyphenyl)-2-(5-methyl-7-oxo-3-phenyl-2-(trifluoromethyl)-4,7-dihydropyrazolo[1,5-a]pyrimidin-6-yl)acetamide]
IC50 [1]: 20 to 250 µM | IC50 [2]: 20 to 100 µM

Cc1[nH]c2c(-c3ccccc3)c(C(F)(F)F)nn2c(=O)c1-c1nc(CO)c(C(C)C)o1 [Compound C1143, 6-(4-(hydroxymethyl)-5-isopropyloxazol-2-yl)-5-methyl-3-phenyl-2-(trifluoromethyl)pyrazolo[1,5-a]pyrimidin-7(4H)-one]
IC50 [1]: < 20 µM | IC50 [2]: > 100 µM

Cc1[nH]c2c(-c3ccccc3)c(C(F)(F)F)nn2c(=O)c1C(=O)Nc1ncco1 [Compound A1074, 5-methyl-N-(oxazol-2-yl)-7-oxo-3-phenyl-2-(trifluoromethyl)-4,7-dihydropyrazolo[1,5-a]pyrimidine-6-carboxamide]
IC50 [1]: < 20 µM | IC50 [2]: > 100 µM

Cc1[nH]c2c(-c3ccccc3)c(C(F)(F)F)nn2c(=O)c1-c1nc2c(C#N)cccc2o1 [Compound C1075, 2-(5-methyl-7-oxo-3-phenyl-2-(trifluoromethyl)-4,7-dihydropyrazolo[1,5-a]pyrimidin-6-yl)benzo[d]oxazole-4-carbonitrile]
IC50 [1]: < 20 µM | IC50 [2]: > 100 µM

COc1cccc2oc(-c3c(COC4CCNC4=O)[nH]c4c(-c5ccccc5)c(C(F)(F)F)nn4c3=O)nc12 (stereo not drawn) [Compound C1159, 6-(4-methoxybenzo[d]oxazol-2-yl)-5-(((2-oxopyrrolidin-3-yl)oxy)methyl)-3-phenyl-2-(trifluoromethyl)pyrazolo[1,5-a]pyrimidin-7(4H)-one]
IC50 [1]: < 20 µM | IC50 [2]: > 100 µM

COc1cccc2oc(-c3c(C[S+](C)[O-])[nH]c4c(-c5ccccc5)c(C(F)(F)F)nn4c3=O)nc12 (stereo not drawn) [Compound C1137, 6-(4-methoxybenzo[d]oxazol-2-yl)-5-((methylsulfinyl)methyl)-3-phenyl-2-(trifluoromethyl)pyrazolo[1,5-a]pyrimidin-7(4H)-one]
IC50 [1]: < 20 µM | IC50 [2]: > 100 µM

COC1(c2nnc(-c3c(C)[nH]c4c(-c5ccccc5)c(C(F)(F)F)nn4c3=O)o2)CCCC1 [Compound D1055, 6-(5-(1-methoxycyclopentyl)-1,3,4-oxadiazol-2-yl)-5-methyl-3-phenyl-2-(trifluoromethyl)pyrazolo[1,5-a]pyrimidin-7(4H)-one]
IC50 [1]: < 20 µM | IC50 [2]: 20 to 100 µM
